Paper PMC6910931, “Converging TLR9 and PI3Kgamma signaling induces sterile inflammation and organ damage” (Scientific Reports, 2019)
“Also recorded” adds a separate entry of the source.

How the values were obtained:
C57BL/6 mice [1] = assay: APAP-induced liver injury (DILI) model; assay type: in vivo; conditions: for reduction in serum ALT levels: AS605240 20 mg/Kg oral 6 and 12 hours after APAP
Method: Mice were fasted for 15 hours before oral APAP administration (500 mg/Kg) or vehicle (sterile saline). After 24 hours mice were anesthetized for respiratory mechanics analysis (described below) and then killed for blood (serum), liver, bronchoalveolar lavage fluid (BALF), and lung collection. Alanine aminotransferase (ALT) levels were measured in the serum using an enzyme activity test (Bioclin). The myeloperoxidase activity assay was performed as described before. BALF was performed by washing the lungs twice with 1 mL of PBS 10 mM EDTA with a polyethylene cannula 18 G resulting in a total of 2 mL of lavage. Cells were centrifuged and used for total cell count and differential cell count after Romanowsky staining (Panótico Rápido LB)[59]. Fragments of liver and the left lobe of the lungs were fixed and then sectioned for histological analysis (Haematoxylin and Eosin). For the drug-induced liver injury model, mice were orally treated with AS605240 6 and 12 hours after APAP treatment or with n-Acetylcysteine (NAC) 1 hour before APAP or 6 and 12 hours after APAP treatment. AS605240 was diluted in 0,9% Saline + 0.5% CMC + 0.1% Tween 20 and given in a dose of 20 mg/Kg and NAC was diluted in 0.9% saline and given in a dose of 600 mg/Kg.
Animals were anesthetized with a mixture of Ketamine/Xylazine (200 mg/Kg and 15 mg/Kg, respectively) as indicated by Buxco. Dynamic compliance (mL/cm H2O), lung resistance (cm H2O × s/mL) and Forced Expiratory Volume at 100 ms (FEV100) (mL) were assessed in tracheostomized and mechanically ventilated mice using Forced Manoeuvres Platform (Buxco)[53].
(§1) In this study, female C57BL/6 mice from 8 to 12 weeks of age were used in all experiments except for the chimaera mice. Animals were obtained from the UFMG’s Centro de Bioterismo and kept in the Laboratório de Imunofarmacologia with food and water ad libitum and day/night light cycles. For all investigations, mice were humanely sacrificed using an intra-peritoneal overdose of Ketamine/Xylazine at a dose equivalent to at least five times the dose used for anesthetising the mice. The animal studies presented here were registered and approved by the UFMG’s Comitê de Ética em Utilização Animal (CEUA) No. 191/2010 and 51/2011 and all the procedures were performed in accordance with the guidelines of the Conselho Nacional De Controle De Experimentação Animal’s resolution of Brazilian Ministry of Science, Technology, Innovation and Communication.

C57BL/6 mice [2] = assay: CpG-induced pleurisy model; assay type: in vivo; conditions: CpG 750 ng/cavity, 12 hours
Method: Animals received one single injection of C-class CpG in the pleural cavity with the indicated dose of agonist. At indicated timepoints, mice were anesthetized intraperitoneally with a mixture of Ketamine/Xylazine and then killed with overdose of intravenous anaesthetic (80 mg/Kg and 15 mg/Kg, respectively). Pleural cavity was washed two times with 1 mL of PBS 10 mM EDTA resulting in a total of 2 mL of lavage. Cells were centrifuged and used for total cell count and differential cell count after Romanowsky staining (Panótico Rápido LB). For the pleurisy model, mice were orally treated with AS605240 twice: 1 h prior the CpG injection and then 6 h after CpG, 20 mg/kg diluted in 0,9% Saline + 0.5% CMC + 0.1% Tween 20.
as §1

[3] = APAP 500 mg/Kg, AS605240 20 mg/Kg, vs WT mice

Row | SMILES | lung remote damage (histological score of lung) (C57BL/6 mice [1]; APAP 500 mg/Kg, AS605240 20 mg/Kg) | reduction in serum ALT levels (C57BL/6 mice [1]; APAP 500 mg/Kg, 24 h) | reduction in serum ALT levels (C57BL/6 mice [1]; APAP 500 mg/Kg, 24 h, listed as AS650240) [%] | ALT levels in the serum (C57BL/6 mice [1]; [3]) | MPO levels in the liver (C57BL/6 mice [1]; [3]) | areas of necrotic tissue in the liver (C57BL/6 mice [1]; [3]) | migration of mononuclear cells into the pleural cavity (C57BL/6 mice [2]; AS605240 20 mg/kg oral) | neutrophil recruitment into the pleural cavity (C57BL/6 mice [2]; AS605240 20 mg/kg oral) | total leukocytes recruited into the pleural cavity (C57BL/6 mice [2]; AS605240 20 mg/kg oral 1 h prior and 6 h after CpG, vs untreated WT) | serum ALT levels, therapeutic treatment (C57BL/6 mice [1]; NAC 600 mg/Kg 6 and 12 hours after APAP, 24 h) | serum ALT levels, prophylactic treatment (C57BL/6 mice [1]; NAC 600 mg/Kg 1 hour before APAP, 24 h)
1 | O=C1NC(=O)/C(=C\c2ccc3nccnc3c2)S1 [AS605240] | reduce lung remote damage | approximately 50% | 50 | lower levels of ALT in the serum | lower MPO levels in the liver | less areas of necrotic tissue | lower effect | reduced neutrophil recruitment | less leukocytes recruited into the pleural cavity | – | –
2 | CC(=O)N[C@@H](CS)C(=O)O [NAC, N-acetyl-cysteine] | – | – | – | – | – | – | – | – | – | not able to reduce ALT levels; also recorded: no impact | completely abrogated the rise of ALT levels
